Numbers after ± are expanded uncertainties.
details: 298.15 K; 101.33 kPa; Liquid; Vibrating tube method

mass density [kg/m3]	SMILES
687.77 ± 0.26	CC(C)CC(C)(C)C [2,2,4-trimethylpentane]
936.88 ± 0.26	CC(=O)N(C)C [N,N-dimethylethanamide]
831.87 ± 0.26	C1CCCCCCC1 [cyclooctane]
726.43 ± 0.26	CCCCCCCCCC [decane]
741.54 ± 0.26	CCCCCCCCCCCC [dodecane]
764.86 ± 0.26	CC1CCCCC1 [methylcyclohexane]
759.27 ± 0.26	CCCCCCCCCCCCCC [tetradecane]

— the NIST ThermoML archive (doi:10.1021/je400487e)
